Values of other authors, collected in patent US20160271085A1 (priority 2015, published 2016).

Legend:
injured sciatic nerves = conditions: addition of lactate; response did not occur in an atmosphere of nitrogen
[1] = tested on: amyotrophic lateral sclerosis; conditions: ALS
[2] = oral, ingested

Question: For `CC(O)C(=O)O` (stereo not drawn) [lactate], which sustained muscle contraction (injured sciatic nerves) is on record?
Answer: The sustained muscle contraction was “enhanced”.

Question: For `Nc1nc2ccc(OC(F)(F)F)cc2s1` [Riluzole], which “progress of the disease” value [1] is on record?
Answer: The value was “appears to slow the progress of the disease”.

Question: For `CC(O)C(=O)[O-].[Na+]` (stereo not drawn) [sodium lactate, Sodium lactate], which serum lactate levels [2] is on record?
Answer: Its serum lactate levels is “significantly elevate serum lactate levels”.
